Measurements published in ChEMBL document CHEMBL1240337, “Identification of proteases that regulate erythrocyte rupture by the malaria parasite Plasmodium falciparum” (Nat Chem Biol, 2008).
Active and inactive are the calls of the source.

Key:
Plasmodium falciparum [1] = test: Antiplasmodial activity against Plasmodium falciparum schizont infected in human erythrocytes assessed as inhibition of ring-stage parasite growth at 1 to 50 uM after 24 by propidium iodide staining-based FACS analysis; type: functional, organism-based
[2] = biological target: T1, Probable cathepsin C (Plasmodium falciparum 3D7) (UniProt Q8IIJ9); test: Inhibition of Plasmodium falciparum 3D7 cathepsin C by fluorescence spectrophotometry
T1 sequence (whole entry): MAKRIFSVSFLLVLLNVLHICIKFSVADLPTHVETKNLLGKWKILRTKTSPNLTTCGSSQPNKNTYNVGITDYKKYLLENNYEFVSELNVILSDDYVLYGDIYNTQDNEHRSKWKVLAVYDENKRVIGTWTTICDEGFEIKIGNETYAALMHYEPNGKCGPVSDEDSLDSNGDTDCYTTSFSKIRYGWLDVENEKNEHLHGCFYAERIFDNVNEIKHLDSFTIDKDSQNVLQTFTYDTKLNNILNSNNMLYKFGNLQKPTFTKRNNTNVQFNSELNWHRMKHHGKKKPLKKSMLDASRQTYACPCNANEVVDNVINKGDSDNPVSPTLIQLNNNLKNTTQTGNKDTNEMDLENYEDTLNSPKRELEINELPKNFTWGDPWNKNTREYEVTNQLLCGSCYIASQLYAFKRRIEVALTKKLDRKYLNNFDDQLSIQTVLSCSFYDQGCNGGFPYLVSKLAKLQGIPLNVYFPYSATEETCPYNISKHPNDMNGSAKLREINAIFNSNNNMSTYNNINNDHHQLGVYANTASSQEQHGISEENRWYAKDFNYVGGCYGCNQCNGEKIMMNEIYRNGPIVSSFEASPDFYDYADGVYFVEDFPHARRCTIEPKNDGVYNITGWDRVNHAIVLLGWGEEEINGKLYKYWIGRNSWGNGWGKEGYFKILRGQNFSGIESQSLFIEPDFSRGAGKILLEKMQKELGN

[3] = biological target: T2, Falcipain-3 (Plasmodium falciparum 3D7) (UniProt Q8IIL0); test: Inhibition of Plasmodium falciparum 3D7 falcipain-3 by fluorescence spectrophotometry
T2 sequence (whole entry): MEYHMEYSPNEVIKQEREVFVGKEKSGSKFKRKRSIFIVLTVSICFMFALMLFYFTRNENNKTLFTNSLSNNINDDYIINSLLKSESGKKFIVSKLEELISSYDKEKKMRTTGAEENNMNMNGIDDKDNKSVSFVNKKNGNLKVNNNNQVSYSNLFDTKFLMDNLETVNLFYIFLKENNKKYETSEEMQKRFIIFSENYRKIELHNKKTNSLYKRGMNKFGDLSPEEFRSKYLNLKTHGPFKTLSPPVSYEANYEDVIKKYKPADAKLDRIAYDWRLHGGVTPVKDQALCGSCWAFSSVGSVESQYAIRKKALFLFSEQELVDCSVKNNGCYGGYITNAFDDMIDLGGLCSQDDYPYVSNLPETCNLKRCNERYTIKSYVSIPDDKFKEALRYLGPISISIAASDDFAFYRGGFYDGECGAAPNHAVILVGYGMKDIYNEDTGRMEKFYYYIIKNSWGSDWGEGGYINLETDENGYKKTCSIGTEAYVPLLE

Plasmodium falciparum [4] = test: Inhibition of Plasmodium falciparum 3D7 falcipain-2 by fluorescence spectrophotometry

Measured: inhibition

CCC[C@H](N)C(=O)N[C@H](/C=C/S(=O)(=O)c1ccccc1)CCc1ccccc1
active: all assays above

C[C@H](N)C(=O)N[C@H](/C=C/S(=O)(=O)c1ccccc1)CCc1ccccc1
active: all assays above
